{"source": "patent US9540427B2", "about": "“Peptide-based stat inhibitor” (The United States of America, as represented by the …, priority 2007, dated 2017)", "key": {"STAT3-deficient MEFs": {"test_system": "STAT3-deficient MEFs", "assay": "Survival of STAT3-deficient MEFs", "format": "cell-based, mouse", "settings": "STAT3-deficient MEFs (data not shown)", "description": "(§1) Furthermore, survival of normal mouse embryonic fibroblasts (MEFs) and STAT3-deficient MEFs was not affected by treatment with STAT3-Hel2A-2 (data not shown). […] This observation potentially provides a basis for an enhanced therapeutic ratio, based on differential inhibitor effects"}, "[1]": {"test_system": "normal mammary epithelial cells MCF-10A", "assay": "MTT assay of growth and viability, MCF-10A", "format": "cell-based", "settings": "escalating doses", "method": "Three breast cancer cell lines (MDA-MB-231, T47D, and MDA-MB-435) and normal breast epithelial (MCF-10A) were treated with escalating doses of STAT3-Hel2A-2 (SEQ ID NO: 20). Cell proliferation and cell death were estimated by MTT assay."}, "[2]": {"test_system": "normal mouse embryonic fibroblasts (MEFs)", "assay": "Survival of normal mouse embryonic fibroblasts", "format": "cell-based", "settings": "normal MEFs (data not shown)", "description": "as §1"}}, "data": [{"compound": "CCCC[C@H](NC(=O)[C@H](CCCNC(=N)N)NC(=O)[C@H](CCCNC(=N)N)NC(=O)[C@H](CC(N)=O)NC(=O)[C@@H]1CCCN1C(=O)[C@H](Cc1ccccc1)NC(=O)[C@H](Cc1c[nH]c2ccccc12)NC(=O)[C@@H](NC(=O)[C@H](CCCCN)NC(=O)[C@@H](NC(=O)[C@H](CCC(N)=O)NC(=O)[C@H](CCCNC(=N)N)NC(=O)[C@H](Cc1ccc(O)cc1)NC(=O)[C@H](CC(C)C)NC(=O)[C@H](CCCCN)NC(=O)[C@H](Cc1c[nH]cn1)NC(=O)[C@H](CC(C)C)NC(=O)[C@H](CCC(N)=O)NC(=O)[C@H](CCC(=O)O)NC(=O)[C@H](CC(C)C)NC(=O)[C@H](Cc1ccc(O)cc1)NC(=O)[C@H](CCCNC(=N)N)NC(=O)[C@@H](NC(=O)[C@H](CC(=O)O)NC(=O)[C@@H](N)CC(C)C)[C@@H](C)O)[C@@H](C)CC)[C@@H](C)CC)C(=O)N[C@@H](CCCCN)C(=O)N[C@@H](Cc1c[nH]c2ccccc12)C(=O)N[C@@H](CCCCN)C(=O)N[C@@H](CCCCN)C(N)=O", "note": "[Hel2A-2-Pen]", "values": [{"measurement": "Survival of STAT3-deficient cells", "setting": "STAT3-deficient MEFs", "result": "not affected"}, {"measurement": "Growth and viability of normal cells", "setting": "[1]", "result": "not altered significantly"}, {"measurement": "Survival of normal cells", "setting": "[2]", "result": "not affected"}]}]}
